According to US6410054B1, “Immediate release eplerenone compositions” (G. D. Searle & Co., priority 1998, dated 2002):

Columns and labels:
[1] = Single dose study: plasma pharmacokinetics of eplerenone, open lactone ring form, spironolactone; conditions: open ring lactone in plasma
Protocol: The pharmacokinetics, safety and antialdosterone activity of single 10, 50, 100, 300 and 1000 mg oral doses of eplerenone were evaluated in a single-center, randomized, double-blind, placebo-controlled study.
The study employed seven parallel dose groups of eight healthy male humans.
The eplerenone capsules administered corresponded to the capsules (or combinations of the capsules) disclosed in Examples 4, 5, 7 and 8 above. The placebo was a conventional capsule containing lactose. […] The fludrocortisone used in the study consisted of commercially available fludrocortisone tablets (Florinef®, Squibb BV).
The subjects, who underwent a ten hour food fast prior to administration of the dose, received a single oral dose of one of the study medications together with about 180 mL of water at 0800 hours. […] Each dose of fludrocortisone was administered with 150 mL of water except for the 1.0 mg dose which was administered with 200 mL of water.
The plasma samples collected from subjects dosed with eplerenone were assayed for concentrations of eplerenone and the open lactone ring form of eplerenone. […] A subset of plasma samples was also assayed for testosterone levels. The urine collected was analyzed to determine concentrations and amounts of eplerenone and the open lactone ring form of eplerenone, the amount of sodium and potassium excreted, and the urinary log10 (sodium/potassium) ratio.

[2] = ADME study of [14C]eplerenone oral solution: plasma, whole blood, saliva pharmacokinetics; assay type: in vivo, humans; conditions: for Plasma Concentration: 100 mg oral solution of [14C]eplerenone
Protocol: (§1) An open-label, single dose study was employed to evaluate the absorption, distribution, metabolism and elimination profile of a single 100 mg dose of an oral solution of eplerenone.
(§2) The study employed eight healthy male humans. Each subject received a single 100 mg oral dose of a solution of [^14C]eplerenone (specific activity 0.75 μCi/mg). Plasma, saliva, breath, urine and fecal samples were collected at predetermined intervals and analyzed for sample radioactivity and the concentration of eplerenone and its open lactone ring form. Safety was determined on the basis of laboratory tests, vital signs, and the occurrence and types of adverse events.
(§3) The subjects, who underwent an overnight food fast prior to administration of the dose, received at 0800 hours a single 100 mg oral dose of an aqueous oral solution of radiolabeled eplerenone reconstituted in 80 mL of an apple juice/hydroxypropyl-β-cyclodextrin mixture. The subjects swallowed about 200 mL of water one, two and three hours post dosing.
(§4) Blood samples were collected at −0.5 (predose), 0.5, 1, 1.5, 2, 2.5, 3, 4, 6, 8, 12, 16, 24, 36, 48, 72 and 96 hours post dose. […] Individual fecal samples were collected beginning immediately after dosing and continuing through 0800 hours on day 8. In addition, one predose fecal sample was provided. Saliva samples were taken at 0.5 hour predose and at 0.5, 1, 2, 4, 6, 12, and 24 hours postdose. Breath samples were taken at 0.5 hour predose and at 1, 2, 3, 4, 6, 8, 12, 24, 36, 48 and 72 hours postdose.

[3] = ADME study of [14C]eplerenone oral solution: excretion in urine, feces, breath; assay type: in vivo, humans; conditions: 100 mg [14C]eplerenone oral solution, mean
Protocol: as §1, §2, §3, §4

[4] = plasma, 100 mg eplerenone oral solution, single dose

**Q.** What does the source list for `COC(=O)C1CC2=CC(=O)CCC2(C)C23OC2CC2(C)C(CCC2(O)CCC(=O)O)C13` (stereo not drawn) [Open Ring Lactone]?
**A.** AUC(0-96) ([1]; 50 mg Epl. single oral dose): 142.8 (ng/mL) hr; Mean Residence Time ([1]; 50 mg Epl. single oral dose): 2.8 h; Oral Clearance ([1]; 50 mg Epl. single oral dose): 491.3 L/h; T1/2 ([1]; 50 mg Epl. single oral dose): 2.7 h; Tmax ([1]; 50 mg Epl. single oral dose): 1.0 h; AUC(0-96) ([1]; 100 mg Epl. single oral dose): 246.8 (ng/mL) hr; Mean Residence Time ([1]; 100 mg Epl. single oral dose): 3.3 h; Oral Clearance ([1]; 100 mg Epl. single oral dose): 445.2 L/h; T1/2 ([1]; 100 mg Epl. single oral dose): 2.7 h; Tmax ([1]; 100 mg Epl. single oral dose): 1.1 h; AUC(0-96) ([1]; 300 mg Epl. single oral dose): 1065.1 (ng/mL) hr; Mean Residence Time ([1]; 300 mg Epl. single oral dose): 4.2 h; Oral Clearance ([1]; 300 mg Epl. single oral dose): 299.8 L/h; T1/2 ([1]; 300 mg Epl. single oral dose): 2.8 h; Tmax ([1]; 300 mg Epl. single oral dose): 1.3 h; AUC(0-96) ([1]; 1000 mg Epl. single oral dose): 3483.5 (ng/mL) hr; Mean Residence Time ([1]; 1000 mg Epl. single oral dose): 5.7 h; Oral Clearance ([1]; 1000 mg Epl. single oral dose): 330.7 L/h; T1/2 ([1]; 1000 mg Epl. single oral dose): 2.6 h; Tmax ([1]; 1000 mg Epl. single oral dose): 2.5 h; Plasma Concentration ([2]; 0.5 hours after dosing): 63.2 ng/mL; Plasma Concentration ([2]; 1.0 hours after dosing): 78.0 ng/mL; Plasma Concentration ([2]; 1.5 hours after dosing): 70.8 ng/mL; Plasma Concentration ([2]; 2.0 hours after dosing): 59.9 ng/mL; Plasma Concentration ([2]; 2.5 hours after dosing): 51.0 ng/mL; Plasma Concentration ([2]; 3.0 hours after dosing): 46.9 ng/mL; Plasma Concentration ([2]; 4.0 hours after dosing): 41.9 ng/mL; Plasma Concentration ([2]; 6.0 hours after dosing): 23.0 ng/mL; Plasma Concentration ([2]; 8.0 hours after dosing): 13.0 ng/mL; Plasma Concentration ([2]; 48.0 hours after dosing): 0 ng/mL; Plasma Concentration ([2]; 72.0 hours after dosing): 0 ng/mL; Plasma Concentration ([2]; −0.5 hours after dosing): 0 ng/mL; AUC(0-96) [2, 4]: 352.2 (ng/mL) hr; Mean Residence Time [2, 4]: 3.4 h; Oral Clearance [2, 4]: 306.3 L/h; T1/2 [2, 4]: 3.1 h; Tmax [2, 4]: 1.1 h; dose excreted in feces as the named form [3]: 2.46%; dose excreted in urine as the named form [3]: 4.98%
